Test results as given in patent US20130072506A1, “6,8-DISUBSTITUTED PURINE COMPOSITIONS” (priority 2011, published 2013).
Read-outs that look alike come from different tables or passages of the source.

Legend:
[1] = test system: T-lymphoblastic leukemia cell line CEM; experiment: In vitro cytotoxic activity (metabolisation of Calcein AM); format: cell-based, human; details: CEM cells, 72 hours incubation, called GI50, read-out: Cell line tested/IC50 (μmol/L) CEM
Text: (§1) In vitro Cytotoxic Activity (Metabolisation of Calcein AM). Because toxic compounds negatively influence metabolic processes of cells, many standard cytotoxicity assays are based on measurement of metabolisation rate of various artificial substrates. Resulting product is then quantified, for example, by means of spectrometry. The assays can be easily modified for use in 96-well plates. For evaluation of cytotoxicity of the 6,8-disubstituted purines of this invention, a microtiter assay based on quantification of metabolisation of Calcein AM was used. The assay is widely used in drug screening programs and in chemosensitivity testing. In live cells, Calcein AM is enzymatically hydrolysed and accumulation of resulting calcein is manifested by green fluorescence.
(§2) The following human cell lines were used for routine screening of the compounds: normal diploid fibroblasts BJ, T-lymphoblastic leukemia cell line CEM, promyelocytic leukemia cell line HL-60, erytroid leukemia cell line K-562, breast carcinoma cell line MCF-7, osteosarcoma cell line HOS and melanoma cell line G-361. The cells were maintained in Nunc/Corning 80 cm^2 plastic tissue culture flasks and cultured in cell culture medium (DMEM with 5 g/l glucose, 2 mM glutamine, […] penicillin, 100 mmg/ml streptomycin, 10% fetal calf serum and sodium bicarbonate).
(§3) The cell suspensions were prepared and diluted according to the particular cell type and the expected target cell density (2.500-30.000 cells per well based on cell growth characteristics) and pipetted (80 μl) into 96-well plates. Inoculates were allowed a pre-incubation period of 24 hours at 37° C. and 5% CO2 for stabilization. Tested compound was added in total volume of […] of water at time zero. Usually, test compound was evaluated at six 3-fold dilutions. In routine testing, the highest concentration tested was 100 μM, but it could have been adjusted because of limited solubility of a compound. All drug concentrations were tested in triplicates.
(§4) Incubations of cells with the test compounds lasted for 72 hours at 37° C., in 5% CO2 atmosphere and 100% humidity. At the end of incubation period Calcein AM in PBS was added into final concentration of 1 μg/ml. After another 1 hour of incubation fluorescence (FD) was measured with the Labsystem FIA Reader Fluoroscan Ascent (UK). Growth inhibition (GI) was estimated using the following equitation: GI=(mean FDdrug exposed wells−mean FDblank)/(mean FDcontrol wells−mean FDblank)×100%. The GI50 value, the drug concentration causing 50% reduction of Calcein AM conversion, was calculated from the obtained dose response curves.

[2] = test system: breast carcinoma cell line MCF-7; experiment: as above; format: cell-based, human; details: MCF7 cells, 72 hours incubation, called GI50, read-out: Cell line tested/IC50 (μmol/L) MCF7
Text: as §1, §2, §3, §4

[3] = test system: erytroid leukemia cell line K-562; experiment: as above; format: cell-based, human; details: 72 hours incubation, called GI50, read-out: Cell line tested/IC50 (μmol/L) K-562
Text: as §1, §2, §3, §4

melanoma cell line G-361 = experiment: as above; format: cell-based, human; details: G-361 cells, 72 hours incubation, called GI50, read-out: Cell line tested/IC50 (μmol/L) G-361
Text: as §1, §2, §3, §4

[4] = test system: normal diploid fibroblasts BJ; experiment: as above; format: cell-based, human; details: BJ cells, 72 hours incubation, called GI50, read-out: Cell line tested/IC50 (μmol/L) BJ
Text: as §1, §2, §3, §4

[5] = test system: osteosarcoma cell line HOS; experiment: as above; format: cell-based, human; details: HOS cells, 72 hours incubation, called GI50, read-out: Cell line tested/IC50 (μmol/L) HOS
Text: as §1, §2, §3, §4

[6] = test system: Human diploid fibroblast BJ; experiment: In vitro cytotoxic activity (metabolisation of MTT); format: cell-based; details: 72 hours, BJ passage 18-22
Method: In vitro Cytotoxic Activity (metabolisation of Mtt). MTT ([…]) assay is a standard colorimetric assay for evaluation of cytotoxicity. Mitochondrial dehydrogenase activity converts yellow MTT into violet formazan which is measured by means of spectrometry.
Human diploid fibroblast BJ (passage 18-22) were seeded into 96-well plate (5.000 cells per well). After 6 hours cultivation medium (DMEM with 5 g/l glucose, 2 mM glutamine, 100 U/ml penicillin, 100 mmg/ml streptomycin, 10% fetal calf serum and sodium bicarbonate) was replaced with the cultivation medium containing test compounds in concentration range of 0-200 μM. Highest concentration was adjusted if the solubility of the compound was limiting. Every concentration was tested in pentaplicate. MTT was added to the cells after 72 hours incubation (final concentration 0.5 mg/ml) and incubation continued for another 3 hours. MTT was solubilised by DMSO and absorbance at 570 nm was measured. Growth inhibition (GI) was estimated using the following equitation: GI=(mean A drug exposed wells−mean Ablank/mean Acontrol wells−mean Ablank)×100%. The GI20 value, the drug concentration causing 20% decrease in mitochondrial dehydrogenase activity, was calculated from the obtained dose response curves.

[7] = Homo sapiens, K562, K-562 cells

Row | SMILES | IC50 [1] | IC50 [2] | IC50 ([3]; K-562 cells) | IC50 (melanoma cell line G-361) | IC50 [4] | IC50 [5] | GI20 [6] | IC50 ([1]; Homo sapiens, CCRF-CEM) | IC50 ([2]; Homo sapiens) | IC50 [3, 7] | IC50 (melanoma cell line G-361; Homo sapiens) | IC50 ([4]; Homo sapiens) | IC50 ([5]; Homo sapiens)
1 | COc1ccc(CNc2ncnc3nc(N)[nH]c23)cc1O [Compound 105] | > 50 µmol/L | > 50 µmol/L | > 50 µmol/L | > 50 µmol/L | > 50 µmol/L | > 50 µmol/L | >100 µM | – | – | – | – | – | –
2 | Oc1cccc(CNc2ncnc3nc(Cl)[nH]c23)c1O [Compound 46] | > 100 µmol/L | > 100 µmol/L | > 50 µmol/L | > 100 µmol/L | > 100 µmol/L | > 100 µmol/L | >200 µM | – | – | – | – | – | –
3 | CC(=CCNc1ncnc2nc(Br)[nH]c12)CO [Compound 3] | > 50 µmol/L | > 50 µmol/L | > 50 µmol/L | > 50 µmol/L | > 50 µmol/L | > 50 µmol/L | – | – | – | – | – | – | –
4 | Oc1cccc(CNc2ncnc3nc(O)[nH]c23)c1 [Compound 169] | > 50 µmol/L | > 50 µmol/L | > 50 µmol/L | > 50 µmol/L | > 50 µmol/L | > 50 µmol/L | – | – | – | – | – | – | –
5 | CCOC(=O)c1nc2ncnc(NCc3ccco3)c2[nH]1 [Compound 194, 6-furfurylamino-8-(ethoxycarbonyl)purine] | – | – | – | – | – | – | – | > 50 µmol/L | > 50 µmol/L | > 50 µmol/L | > 50 µmol/L | > 50 µmol/L | > 50 µmol/L
6 | Nc1nc2ncnc(NCc3cccc(O)c3O)c2[nH]1 [Compound 102] | > 50 µmol/L | > 50 µmol/L | > 50 µmol/L | > 50 µmol/L | > 50 µmol/L | > 50 µmol/L | >100 µM | – | – | – | – | – | –
7 | Cc1cccc(Nc2ncnc3nc(N(C)C)[nH]c23)c1 [Compound 81] | > 50 µmol/L | > 50 µmol/L | > 50 µmol/L | > 50 µmol/L | > 50 µmol/L | > 50 µmol/L | >100 µM | – | – | – | – | – | –
8 | COc1cccc(Nc2ncnc3nc(CN)[nH]c23)c1 [Compound 186] | > 50 µmol/L | > 50 µmol/L | > 50 µmol/L | > 50 µmol/L | > 50 µmol/L | > 50 µmol/L | – | – | – | – | – | – | –
9 | COc1cccc(Nc2ncnc3nc(O)[nH]c23)c1 [Compound 172] | > 50 µmol/L | > 50 µmol/L | > 50 µmol/L | > 50 µmol/L | > 50 µmol/L | > 50 µmol/L | – | – | – | – | – | – | –
10 | COc1nc2ncnc(NCC=C(C)CO)c2[nH]1 [Compound 122] | > 50 µmol/L | > 50 µmol/L | > 50 µmol/L | > 50 µmol/L | > 50 µmol/L | > 50 µmol/L | – | – | – | – | – | – | –
11 | NCc1nc2ncnc(NCc3ccco3)c2[nH]1 [Compound 180] | > 50 µmol/L | > 50 µmol/L | > 50 µmol/L | > 50 µmol/L | > 50 µmol/L | > 50 µmol/L | – | – | – | – | – | – | –
12 | Oc1nc2ncnc(NCc3ccco3)c2[nH]1 [Compound 166] | > 50 µmol/L | > 50 µmol/L | > 50 µmol/L | > 50 µmol/L | > 50 µmol/L | > 50 µmol/L | – | – | – | – | – | – | –
13 | COC(=O)c1nc2ncnc(NCc3ccco3)c2[nH]1 [Compound 187, 6-furfurylamino-8-(methoxycarbonyl)purine] | – | – | – | – | – | – | – | > 50 µmol/L | > 50 µmol/L | > 50 µmol/L | > 50 µmol/L | > 50 µmol/L | > 50 µmol/L
14 | NCc1nc2ncnc(NCc3cccc(F)c3)c2[nH]1 [Compound 182] | > 50 µmol/L | > 50 µmol/L | > 50 µmol/L | > 50 µmol/L | > 50 µmol/L | > 50 µmol/L | – | – | – | – | – | – | –
15 | Oc1nc2ncnc(Nc3ccccc3)c2[nH]1 [Compound 171] | > 50 µmol/L | > 50 µmol/L | > 50 µmol/L | > 50 µmol/L | > 50 µmol/L | > 50 µmol/L | – | – | – | – | – | – | –
16 | COc1ccccc1Nc1ncnc2nc(CN)[nH]c12 [Compound 185] | > 50 µmol/L | > 50 µmol/L | > 50 µmol/L | > 50 µmol/L | > 50 µmol/L | > 50 µmol/L | – | – | – | – | – | – | –
17 | Nc1nc2ncnc(NCc3ccccc3Br)c2[nH]1 [Compound 93] | > 50 µmol/L | > 50 µmol/L | > 50 µmol/L | > 50 µmol/L | > 50 µmol/L | > 50 µmol/L | – | – | – | – | – | – | –
18 | O=C(O)c1nc2ncnc(NCc3ccco3)c2[nH]1 [Compound 201] | > 50 µmol/L | > 50 µmol/L | > 50 µmol/L | > 50 µmol/L | > 50 µmol/L | > 50 µmol/L | – | – | – | – | – | – | –
19 | CSc1nc2ncnc(NCc3ccco3)c2[nH]1 [Compound 147, 6-furfurylamino-8-methylthiopurine] | – | – | – | – | – | – | – | > 50 µmol/L | > 50 µmol/L | > 50 µmol/L | > 50 µmol/L | > 50 µmol/L | > 50 µmol/L
20 | COc1cccc(CNc2ncnc3nc(CN)[nH]c23)c1 [Compound 183] | > 50 µmol/L | > 50 µmol/L | > 50 µmol/L | > 50 µmol/L | > 50 µmol/L | > 50 µmol/L | – | – | – | – | – | – | –
21 | NCc1nc2ncnc(Nc3ccccc3)c2[nH]1 [Compound 184] | > 50 µmol/L | > 50 µmol/L | > 50 µmol/L | > 50 µmol/L | > 50 µmol/L | > 50 µmol/L | – | – | – | – | – | – | –
22 | COc1cccc(CNc2ncnc3nc(O)[nH]c23)c1 [Compound 170] | > 50 µmol/L | > 50 µmol/L | > 50 µmol/L | > 50 µmol/L | > 50 µmol/L | > 50 µmol/L | – | – | – | – | – | – | –
23 | Sc1nc2ncnc(NCc3ccco3)c2[nH]1 [Compound 137, 6-furfurylamino-8-mercaptopurine] | – | – | – | – | – | – | – | > 50 µmol/L | > 50 µmol/L | > 50 µmol/L | > 50 µmol/L | > 50 µmol/L | > 50 µmol/L
24 | NCCCNc1nc2ncnc(NCc3ccco3)c2[nH]1 [Compound 208, 6-furfurylamino-8-(aminopropylamino)purine] | – | – | – | – | – | – | – | > 50 µmol/L | > 50 µmol/L | > 50 µmol/L | > 50 µmol/L | > 50 µmol/L | > 50 µmol/L
25 | CC(=CCNc1ncnc2nc(O)[nH]c12)CO [Compound 168] | > 50 µmol/L | > 50 µmol/L | > 50 µmol/L | > 50 µmol/L | > 50 µmol/L | > 50 µmol/L | – | – | – | – | – | – | –
26 | N#Cc1nc2ncnc(NCc3ccco3)c2[nH]1 [Compound 173] | > 50 µmol/L | > 50 µmol/L | > 50 µmol/L | > 50 µmol/L | > 50 µmol/L | > 50 µmol/L | – | – | – | – | – | – | –
27 | COc1nc2ncnc(NCc3cccc(OC)c3O)c2[nH]1 [Compound 130] | > 50 µmol/L | > 50 µmol/L | > 50 µmol/L | > 50 µmol/L | > 50 µmol/L | > 50 µmol/L | – | – | – | – | – | – | –
